Series [1] can be described thus: Oral bioavailability PK in dog. Type of series: in vivo. As to conditions: dog (Beagle), oral gavage, solution vehicle 5% ethanol, 20% propylene glycol, 75% water; based on exposure of Intermediate 5 in plasma.
Procedure: Oral dose (suspension and solution vehicle) of the compound being tested was administered via gavage in rat (Sprague Dawley) and dog (Beagle). Serial blood samples were collected via jugular vein into pre-chilled K2EDTA with 2 mM dichlorvos (final concentration) for up to 168h. Whole blood was processed into plasma by centrifuge (3000 rpm for 10 minutes at 5C) within 30 minutes of collection.
Plasma samples were analyzed by direct protein precipitation with acetonitrile and further dilution with water before injecting onto Sciex API 5500 LC/MS/MS system for analysis.
AUC was calculated as Area under the plasma concentration vs. time curve from 0 h to infinity.
The solution vehicles used were 1) 5% ethanol, 20% propylene glycol, and 75% water and 2) 30% 10 mM HCl, 5% ethanol, 45% polyethylene glycol 300, and 20% propylene glycol.
For series [2] the following is noted: 1.0% DMSO, 24-hour incubation at ambient temperature, maximum theoretical 100 μM; for pH 2 solubility: 0.1N HCl, first value of the cell; for pH 7 solubility: 1×PBS buffer (pH 7.4), second value of the cell.
A short description of another series: physchem. The following applies: 25 °C, fassif, thermodynamic from solid.

Structures are written as SMILES. In brackets after ≈: the same amount, converted by molar mass.

With `CC(C)(C#Cc1ccc(-c2ccc(Cl)c3c(NS(C)(=O)=O)nn(CC(F)(F)F)c23)c([C@H](Cc2cc(F)cc(F)c2)NC(=O)Cn2nc(C(F)(F)F)c3c2C(F)(F)[C@@H]2C[C@H]32)n1)S(C)(=O)=O` [Intermediate 5, N—((S)-1-(3-(4-chloro-3-(methylsulfonamido)-1-(2,2,2-trifluoroethyl)-1H-indazol-7-yl)-6-(3-methyl-3-(methylsulfonyl)but-1-yn-1-yl)pyridin-2-yl)-2-(3,5-difluorophenyl)ethyl)-2-((3bS,4aR)-5,5-difluoro-3-(trifluoromethyl)-3b,4,4a,5-tetrahydro-1H-cyclopropa[3,4]cyclopenta[1,2-c]pyrazol-1-yl)acetamide, reference compound], the “Dog F % (solution)” value in series [1] stood at 16%. In addition, in series [2], the “pH 2 solubility” value came out at 0.11 μM and the “pH 7 solubility” value is given as 0.32 μM.
One may read the solubility as the concentration that dissolves in the medium under given conditions. As to `CC(C)(C#Cc1ccc(-c2ccc(Cl)c3c(N(C(=O)OCCN(CC(=O)O)C(=O)OCOP(=O)(O)O)S(C)(=O)=O)nn(CC(F)(F)F)c23)c([C@H](Cc2cc(F)cc(F)c2)NC(=O)Cn2nc(C(F)(F)F)c3c2C(F)(F)[C@@H]2C[C@H]32)n1)S(C)(=O)=O` [Compound 134], the concentration in solution in the series “physchem” (solubility) came to 2640 µg/mL (≈ 2080 µM). Moreover, in series [2], the “pH 2 solubility” value turned out to be 1 μM and the “pH 7 solubility” value was found to be 100 μM.
As to `CC(C)(C#Cc1ccc(-c2ccc(Cl)c3c(N(C(=O)NCCP(=O)(O)O)S(C)(=O)=O)nn(CC(F)(F)F)c23)c([C@H](Cc2cc(F)cc(F)c2)NC(=O)Cn2nc(C(F)(F)F)c3c2C(F)(F)[C@@H]2C[C@H]32)n1)S(C)(=O)=O` [Compound 54, (2-(3-(4-chloro-7-(2-((S)-1-(2-((3bS,4aR)-5,5-difluoro-3-(trifluoromethyl)-3b,4,4a,5-tetrahydro-1H-cyclopropa[3,4]cyclopenta[1,2-c]pyrazol-1-yl)acetamido)-2-(3,5-difluorophenyl)ethyl)-6-(3-methyl-3-(methylsulfonyl)but-1-yn-1-yl)pyridin-3-yl)-1-(2,2,2-trifluoroethyl)-1H-indazol-3-yl)-3-(methylsulfonyl)ureido)ethyl)phosphonic acid], in the series “physchem”, the concentration in solution (solubility) came to 416 µg/mL (≈ 372 µM). In series [2], the “pH 2 solubility” value was 1 μM and the “pH 7 solubility” value stood at 41 μM.
